# Reference: patent US9464326B2, “Total and phosphorylated IL-1 receptor-associated kinase-1 and IL-1 receptor-associated kinase-4 as a biomarker for cancer progression and chemotherapy resistance” (University of Maryland, Baltimore, priority 2012, dated 2016)
# Key:
# Type in all cases: cell-based, human
# Malme-3M melanoma cells = assay: Apoptosis by annexin-V/PI flow cytometry in Malme-3M
# Procedure: FIG. 8. IRAK-1,-4 inhibition sensitized melanoma cells to vinblastine-mediated cytotoxicity. (A) A375 and Malme-3M melanoma cells were cultured with or without 2.5 μM of IRAK-1,-4 and in the presence varying concentrations of vinblastine, cisplatin or 5′ Fluorouracil. Forty-eight hours later apoptosis was evaluated by staining cells with annexin-V and propidium iodide and analyzed by flow cytometry. (B) A375 cells were transfected via electroporation with siRNA-IRAK-1,-4. IRAK-1 protein levels were examined by Western blotting. […], A375-psiRNA-hIRAK-1, A375-psiRNA-hIRAK-4, or cells expressing both psiRNA-hIRAK-1 and -4 were cultured in the presence of vinblastine (100 nmol/L) for 48 hours and apoptosis was examined by flow cytometry. (C) A375 melanoma cells were cultured in the presence of vehicle alone (DMSO) or various concentrations of IRAK-1,-4. Forty-eight hours later cell lysates were used to analyze the expression of levels of cleaved PARP or caspase-3 by Western blots. (D) A375 melanoma cells were cultured with or without 2.5 μM of IRAK.-1,-4 and in the presence or absence of vinblastine for 48 hrs. PARP and caspase-3 levels were determined by Western blot.
# The TLR1-TLR2 ligand tripalmitoyl-S-(bis(palmitoyloxy)propyl)-Cys-Ser-(Lys)3-Lys (Pam3Cys) was purchased from Invivogen (San Diego, Calif., USA). […] In some experiments cells were treated with the indicated concentrations of IRAK.-1,-4 inhibitor and vinblastine, cisplatin, and 5-fluorouracil (Sigma-Aldrich, St. Louis, Mo.), and apoptosis was quantitated by flow cytometry after staining cells with FITC-labeled annexin-V (BD Pharmingen, San Jose, Calif.) and propidium iodide (PI; Sigma-Aldrich).
# SupT1 = assay: Proliferation (3H-thymidine) of SupT1
# Text: (§1) CCRF-CEM, CEM/C1, CEM/C2, CEM-C7, Jurkat, Loucy, Molt-4, HSB-2, SUP-T1, Hut 78, HH, Hut 102, MO, and H9 T-leukemia and T-lymphoma cell lines were purchased from the American Type Culture Collection (Manassas, Va., USA). All of the cell lines were initially expanded and cryopreserved within one month of receipt. Cells were typically used for 6 months at which time a fresh vial of cryopreserved cells was used. Total T cells from healthy donors were isolated via negative selection followed by positive selection using a CD3+ selection kit (Invitrogen, Carlsbad, Calif.). T cells were isolated from patients with T-ALL bone marrow or peripheral blood samples containing more than 70% leukemia cells using a CD2+ isolation kit (STEMCELL Technologies, Vancouver, Canada). All tissues were collected under institutional IRB-approved protocols and all participants gave written informed assent/consent. For in vitro experiments, T-ALL cells were cultured in AIM-V medium supplemented with 20% human AB serum in the presence of recombinant human stem cell factor (50 ng/mL; Amgen, Thousand Oaks, Calif.), insulin (20 nM; Sigma-Aldrich, St Louis, Mo., USA) and IL-7 (50 ng/mL; R&D Systems, Minneapolis, Minn., USA). In other experiments, protein lysate was collected using the Full Moon Biosystems (Sunnyvale, Calif., USA) buffer prior to protein examination by western blot or protein array.
# (§2) Cells were cultured in a 96-well plate (Corning Costar, Corning, N.Y., USA) with various concentrations of TLR ligands 1-9, starting at 10 μg/ml, in a final volume of 200 ul. TLR ligands were diluted 2-fold. Cell lines (25-40×10^3/well) were cultured for 54 hours, whereas fresh patient-derived T-ALL cells (200×10^3/well) were cultured for 30 hours prior to adding [^3H]-thymidine for 18 hours. After this time point, cells were harvested with a Packard Filter-Mate-96 cell harvester (Perkin Elmer, Waltham, Mass., USA) and counted on Packard Top Count-NXT (Perkin Elmer, Waltham, Mass., USA). Results were expressed as average counts per minute (cpm). In some experiments CCRF-CEM cells were pre-treated with TLR1-TLR2 ligand (Pam3CysK4; 2.5 ug/ml) for 48 hrs, washed, and then cultured in the presence of varying concentrations of FBS. Forty-eight hours later, proliferation (±SD) was determined by ^3H-thymidine incorporation. Alternatively, apoptosis was measured by flow cytometry after staining cells with Annexin-V (BD Pharmingen, San Diego, Calif., USA) and propidium iodide (Sigma). Cell number was counted under microscopy by staining cells with trypan blue.
# (§3) The following TLR ligands were purchased from Invivogen (San Diego, Calif., USA): tripalmitoyl-S-(bis(palmitoyloxy)propyl)-Cys-Ser-(Lys)3-Lys (TLR1-2); Poly I:C (TLR3); ultrapure S. Minnesota Lipopolysaccharide (TLR4); S. typhimurium flagellin (TLR5); FSL-1 (TLR2/6); Imiquimod (TLR7); ssRNA40/Lyovec (TLR8); CpG-ODN 2006 (TLR9).
# HH = assay: Proliferation (3H-thymidine) of HH; conditions: 3H-thymidine uptake, 72 h
# Text: as §1, with “In other experiments, protein lysate was collected using the Full Moon Biosystems (Sunnyvale, Calif., USA) buffer prior to protein examination by western blot or protein array.” left out
# (§4) Cells were cultured in a 96-well plate (Corning Costar, Corning, N.Y., USA) with various concentrations of TLR ligands 1-9, starting at 10 μg/ml, in a final volume of 200 ul. […] After this time point, cells were harvested with a Packard Filter-Mate-96 cell harvester (Perkin Elmer, Waltham, Mass., USA) and counted on Packard Top Count-NXT (Perkin Elmer, Waltham, Mass., USA). Results were expressed as average counts per minute (cpm). […] Forty-eight hours later, proliferation (±SD) was determined by ^3H-thymidine incorporation. Alternatively, apoptosis was measured by flow cytometry after staining cells with Annexin-V (BD Pharmingen, San Diego, Calif., USA) and propidium iodide (Sigma). Cell number was counted under microscopy by staining cells with trypan blue. […]
# H9 = assay: Proliferation (3H-thymidine) of H9
# Text: as §1, §2, §3
# Primary T-cells Non-Act = assay: Proliferation (3H-thymidine) of non-activated primary T-cells; conditions: 3H-thymidine uptake, 72 h
# Text: as §1, with “In other experiments, protein lysate was collected using the Full Moon Biosystems (Sunnyvale, Calif., USA) buffer prior to protein examination by western blot or protein array.” left out
# as §4
# [1] = system: Primary T-cells Activated; assay: Proliferation (3H-thymidine) of activated primary T-cells
# Text: as §1, §2, §3
Compound,"apoptosis with 5′-fluorouracil (Malme-3M melanoma cells; Malme3M, IRAK-1,-4 inhibitor with 0-100 nmol/L 5′-fluorouracil)","sensitivity to vinblastine (apoptosis) (Malme-3M melanoma cells; Malme-3M, 2.5 μmol/L IRAK-1,-4 inhibitor with 0-200 nmol/L vinblastine, 48 h)","cisplatin's cytotoxicity (Malme-3M melanoma cells; Malme-3M, IRAK-1,-4 inhibitor with 0-50 nmol/L cisplatin)","Proliferative effects of TLR ligands (SupT1; SupT1, 3H-thymidine uptake, 72 h)","effect on proliferation (in words) (SupT1; SupT1 T-lymphoblastic leukemia, FIG. 1A)",Proliferative effects of TLR ligands (HH),"Proliferative effects of TLR ligands (H9; H9, 3H-thymidine uptake, 72 h)","effect on proliferation (in words) (H9; H9 T-lymphoma, FIG. 1A)",Proliferative effects of TLR ligands (Primary T-cells Non-Act),"Proliferative effects of TLR ligands ([1]; Primary T-cells, Activated, 3H-thymidine uptake, 72 h)","TLR ligand concentration in parentheses below the symbol ([1]; Primary T-cells, Activated, no unit in table (μg/ml))","effect on proliferation / T-cell expansion (in words) ([1]; T cells from healthy donors, together with T cell receptor stimulation, FIG. 1A)"
"O=C(Nc1nc2ccccc2n1CCN1CCOCC1)c1cccc([N+](=O)[O-])c1 [IRAK-1,-4 inhibitor]",appeared to enhance apoptosis,increased sensitivity,did not increase,–,–,–,–,–,–,–,–,–
tripalmitoyl-S-(bis(palmitoyloxy)propyl)-Cys-Ser-(Lys)3-Lys [Pam3Cysk4],–,–,–,∘,no effect on proliferation,∘,∘,no effect on proliferation,∘,+ (enhanced proliferation by 25% or greater),(10),enhanced proliferation
